Results from patent publication US9062061B2, “Compound having PARP inhibitory activity” (SANTEN PHARMACEUTICAL CO., LTD., priority 2011, dated 2015).

Target: T1, human recombinant PARP1 (Homo sapiens, UniProt P09874)
T1 construct: purchased Trevigen 4677-096-K
Test: PARP inhibitory activity measurement test (Universal Colorimetric PARP Assay kit, Trevigen)
Type: biochemical
Conditions: compound concentration: 10 μM, read-out: PARP1 inhibition rate (%)
Experimental: For evaluating PARP inhibitory activity of the present compound, inhibitory activity of each test compound against human recombinant PARP 1 was measured using Universal Colorimetric PARP Assay kit with Histone-Coated Strip Wells (Cat No.: 4677-096-K) available from Trevigen. The test was conducted according to the procedure in the instruction attached to this kit. The concrete operation will be described below.
After dissolving the test compound in dimethyl sulfoxide, the solution was diluted with a PARP buffer attached to the kit to prepare a 50 μM test compound solution.
In each well of a histone-coated 96-well plate, 10 μL of the test compound solution (50 μM), 15 μL of human recombinant PARP1 (33.3 Unit/mL) and 25 μL of PARP cocktail (containing activated DNA and biotinated NAD) were added, and incubated at room temperature for 1 hour (final reaction amount: 50 μL). Each well was washed twice with 200 μL of 0.1% Triton-X-containing Dulbecco's phosphate buffer, and further washed twice with 200 μL of Dulbecco's phosphate buffer, and then 50 μL of Strep-HRP was added, followed by incubation at room temperature for 1 hour. Each well was washed twice with 200 μL of 0.1% Triton-X-containing Dulbecco's phosphate buffer, and further washed twice with 200 μL of Dulbecco's phosphate buffer, and then 50 μL of TACS-Sapphire coloriometric substrate was added, followed by incubation at room temperature for 15 minutes. After stopping the reaction by adding 50 μL of 0.2 M HCl, absorbance at 450 nm (Abs 450) was measured by a microplate reader. The number of examples in each group was 1 to 2.
Using a well into which dimethyl sulfoxide and a PARP buffer were added in place of the test compound solution and human recombinant PARP1, the above operation was conducted as a negative control.
Using a well into which a PARP buffer containing dimethyl sulfoxide was added in place of the test compound solution, the above operation was conducted as a positive control.
PARP1 inhibition rate (%) was calculated according to the following Formula 1. PARP1 inhibition rate(%)=(AbsB−AbsX)/(AbsB−AbsA)×100 [Formula 1]
AbsA: absorbance of negative control (Abs 450)
AbsB: absorbance of positive control (Abs 450)
AbsX: absorbance of test compound-treated group (Abs 450)

T1 sequence (P09874 whole entry): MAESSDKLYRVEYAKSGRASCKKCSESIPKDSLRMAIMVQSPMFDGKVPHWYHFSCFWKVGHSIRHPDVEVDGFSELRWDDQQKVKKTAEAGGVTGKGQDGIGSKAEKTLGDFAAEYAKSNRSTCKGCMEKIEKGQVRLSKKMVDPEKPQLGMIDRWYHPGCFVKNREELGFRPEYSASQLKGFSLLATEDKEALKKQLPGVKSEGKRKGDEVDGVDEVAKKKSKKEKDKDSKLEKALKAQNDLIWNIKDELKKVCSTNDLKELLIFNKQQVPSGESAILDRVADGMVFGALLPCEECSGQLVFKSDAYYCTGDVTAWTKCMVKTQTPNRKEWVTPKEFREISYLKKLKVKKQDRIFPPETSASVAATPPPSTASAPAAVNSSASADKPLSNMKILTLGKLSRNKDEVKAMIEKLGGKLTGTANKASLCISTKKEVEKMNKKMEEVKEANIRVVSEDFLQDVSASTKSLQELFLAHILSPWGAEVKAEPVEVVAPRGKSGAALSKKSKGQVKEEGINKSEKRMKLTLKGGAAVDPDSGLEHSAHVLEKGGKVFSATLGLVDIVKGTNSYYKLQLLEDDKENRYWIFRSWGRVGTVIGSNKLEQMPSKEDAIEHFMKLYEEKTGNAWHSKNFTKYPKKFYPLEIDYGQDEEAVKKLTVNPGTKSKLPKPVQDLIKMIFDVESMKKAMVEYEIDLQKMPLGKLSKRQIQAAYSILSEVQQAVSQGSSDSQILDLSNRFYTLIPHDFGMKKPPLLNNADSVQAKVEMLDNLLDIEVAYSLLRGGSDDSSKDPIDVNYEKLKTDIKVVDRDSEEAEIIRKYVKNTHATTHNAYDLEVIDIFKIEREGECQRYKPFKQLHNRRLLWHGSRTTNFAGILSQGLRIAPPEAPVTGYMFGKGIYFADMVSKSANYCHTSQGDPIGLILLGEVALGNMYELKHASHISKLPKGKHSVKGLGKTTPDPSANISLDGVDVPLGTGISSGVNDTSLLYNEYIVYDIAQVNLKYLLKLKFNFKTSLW

SMILES | inhibition at 10 µM
O=C(c1cc2[nH]c(=O)c3ccccc3n2c1)N1CCN(c2ccc(F)cc2)CC1 [Compound 1-1, 2-[4-(4-Fluorophenyl)piperazine-1-carbonyl]pyrrolo[1,2-a]quinazolin-5(4H)-one] | 90%
O=C(c1cc2[nH]c(=O)c3ccccc3n2c1)N1CCN(c2nccs2)CC1 [Compound 1-3, 2-[4-(Thiazol-2-yl)piperazine-1-carbonyl]pyrrolo[1,2-a]quinazolin-5(4H)-one] | 100%
O=C(c1cc2[nH]c(=O)c3ccccc3n2c1)N1CCN(c2ccccc2)CC1 [Compound 1-4, 2-(4-Phenylpiperazine-1-carbonyl)pyrrolo[1,2-a]quinazolin-5(4H)-one] | 99%
O=C(c1cc2[nH]c(=O)c3ccccc3n2c1)N1CCC(c2ccccc2)CC1 [Compound 1-5, 2-(4-Phenylpiperidine-1-carbonyl)pyrrolo[1,2-a]quinazolin-5(4H)-one] | 71%
O=C(c1cc2[nH]c(=O)c3ccccc3n2c1)N1CC=C(c2ccccc2)CC1 [Compound 1-6, 2-(4-Phenyl-1,2,3,6-tetrahydropyridine-1-carbonyl)pyrrolo[1,2-a]quinazolin-5(4H)-one] | 23%
O=C(c1cc2[nH]c(=O)c3ccccc3n2c1)N1CC=C(c2ccc(Cl)cc2)CC1 [Compound 1-7, 2-[4-(4-Chlorophenyl)-1,2,3,6-tetrahydropyridine-1-carbonyl]pyrrolo[1,2-a]quinazolin-5(4H)-one] | 44%
O=C(c1cc2[nH]c(=O)c3ccccc3n2c1)N1CCN(Cc2ccccc2)CC1 [Compound 1-11, 2-(4-Benzylpiperazine-1-carbonyl)pyrrolo[1,2-a]quinazolin-5(4H)-one] | 86%
O=C(c1cc2[nH]c(=O)c3ccccc3n2c1)N1CCN(c2cccc(F)c2)CC1 [Compound 1-15, 2-[4-(3-Fluorophenyl)piperazine-1-carbonyl]pyrrolo[1,2-a]quinazolin-5(4H)-one] | 74%
CC(C)(C)OC(=O)N1CCCN(C(=O)c2cc3[nH]c(=O)c4ccccc4n3c2)CC1 [Compound 1-47, 2-[4-(tert-Butoxycarbonyl)homopiperazine-1-carbonyl]pyrrolo[1,2-a]quinazolin-5(4H)-one] | 93%
CN(C)CCNC(=O)c1cc2[nH]c(=O)c3ccccc3n2c1 [Compound 1-51, 2-[(2-Dimethylaminoethyl)aminocarbonyl]pyrrolo[1,2-a]quinazolin-5(4H)-one] | 92%
O=C(NCc1ccccc1)c1cc2[nH]c(=O)c3ccccc3n2c1 [Compound 1-54, 2-(Benzylaminocarbonyl)pyrrolo[1,2-a]quinazolin-5(4H)-one] | 81%
O=C(NCCc1ccccc1)c1cc2[nH]c(=O)c3ccccc3n2c1 [Compound 1-55, 2-(2-Phenylethylaminocarbonyl)pyrrolo[1,2-a]quinazolin-5(4H)-one] | 81%
O=c1[nH]c2cc(CN3CCN(Cc4ccc(Cl)cc4)CC3)cn2c2ccccc12 [Compound 2-2, 2-[4-(4-Chlorobenzyl)piperazin-1-ylmethyl]pyrrolo[1,2-a]quinazolin-5(4H)-one] | 78%
O=c1[nH]c2cc(CN3CCN(c4nccs4)CC3)cn2c2ccccc12 [Compound 2-3, 2-[4-(Thiazol-2-yl)piperazin-1-ylmethyl]pyrrolo[1,2-a]quinazolin-5(4H)-one] | 99%
O=c1[nH]c2cc(CN3CCN(c4ccccc4)CC3)cn2c2ccccc12 [Compound 2-4, 2-(4-Phenylpiperazin-1-ylmethyl)pyrrolo[1,2-a]quinazolin-5(4H)-one] | 100%
O=c1[nH]c2cc(CN3CC=C(c4ccccc4)CC3)cn2c2ccccc12 [Compound 2-6, 2-(4-Phenyl-1,2,3,6-tetrahydropyridin-1-ylmethyl)pyrrolo[1,2-a]quinazolin-5(4H)-one] | 100%
O=c1[nH]c2cc(CN3CCN(Cc4ccccc4)CC3)cn2c2ccccc12 [Compound 2-11, 2-(4-Benzylpiperazin-1-ylmethyl)pyrrolo[1,2-a]quinazolin-5(4H)-one] | 99%
O=c1[nH]c2cc(CN3CCN(Cc4ccc(F)cc4)CC3)cn2c2ccccc12 [Compound 2-13, 2-[4-(4-Fluorobenzyl)piperazin-1-ylmethyl]pyrrolo[1,2-a]quinazolin-5(4H)-one] | 96%

The next lines start with the values.

inhibition at 10 µM | SMILES
55% | O=C(c1cc2[nH]c(=O)c3ccccc3n2c1)N1CCN(Cc2ccc(Cl)cc2)CC1 [Compound 1-2, 2-[4-(4-Chlorobenzyl)piperazine-1-carbonyl]pyrrolo[1,2-a]quinazolin-5(4H)-one]
51% | O=C(c1cc2[nH]c(=O)c3ccccc3n2c1)N1CC=C(c2ccc(F)cc2)CC1 [Compound 1-8, 2-[4-(4-Fluorophenyl)-1,2,3,6-tetrahydropyridine-1-carbonyl]pyrrolo[1,2-a]quinazolin-5(4H)-one]
68% | CN1CCN(C(=O)c2cc3[nH]c(=O)c4ccccc4n3c2)CC1 [Compound 1-10, 2-(4-Methylpiperazine-1-carbonyl)pyrrolo[1,2-a]quinazolin-5(4H)-one]
64% | O=C(c1cc2[nH]c(=O)c3ccccc3n2c1)N1CCN(c2ccc(Cl)cc2)CC1 [Compound 1-12, 2-[4-(4-Chlorophenyl)piperazine-1-carbonyl]pyrrolo[1,2-a]quinazolin-5(4H)-one]
67% | O=C(c1cc2[nH]c(=O)c3ccccc3n2c1)N1CCN(Cc2ccc(F)cc2)CC1 [Compound 1-13, 2-[4-(4-Fluorobenzyl)piperazine-1-carbonyl]pyrrolo[1,2-a]quinazolin-5(4H)-one]
44% | O=C(c1cc2[nH]c(=O)c3ccccc3n2c1)N1CCC(c2ccc(F)cc2)CC1 [Compound 1-14, 2-[4-(4-Fluorophenyl)piperidine-1-carbonyl]pyrrolo[1,2-a]quinazolin-5(4H)-one]
84% | O=C(c1cc2[nH]c(=O)c3ccccc3n2c1)N1CCc2ccccc2C1 [Compound 1-21, 2-(3,4-Dihydroisoquinoline-2(1H)-carbonyl)pyrrolo[1,2-a]quinazolin-5(4H)-one]
36% | O=C(Nc1ccccc1)c1cc2[nH]c(=O)c3ccccc3n2c1 [Compound 1-49, 2-(Phenylaminocarbonyl)pyrrolo[1,2-a]quinazolin-5(4H)-one]
92% | CN1CCCN(C(=O)c2cc3[nH]c(=O)c4ccccc4n3c2)CC1 [Compound 1-50, 2-(4-Methylhomopiperazine-1-carbonyl)pyrrolo[1,2-a]quinazolin-5(4H)-one]
94% | O=C(NCc1ccncc1)c1cc2[nH]c(=O)c3ccccc3n2c1 [Compound 1-52, 2-[(Pyridin-4-ylmethyl)aminocarbonyl]pyrrolo[1,2-a]quinazolin-5(4H)-one]
96% | O=C(NCCN1CCOCC1)c1cc2[nH]c(=O)c3ccccc3n2c1 [Compound 1-53, 2-[2-(Morpholin-4-ylethyl)aminocarbonyl]pyrrolo[1,2-a]quinazolin-5(4H)-one]
83% | O=C(NCCCc1ccccc1)c1cc2[nH]c(=O)c3ccccc3n2c1 [Compound 1-56, 2-(3-Phenylpropylaminocarbonyl)pyrrolo[1,2-a]quinazolin-5(4H)-one]
98% | CN1CCN(Cc2cc3[nH]c(=O)c4ccccc4n3c2)CC1 [Compound 2-10, 2-(4-Methylpiperazin-1-ylmethyl)pyrrolo[1,2-a]quinazolin-5(4H)-one]
